Source: ChEMBL document CHEMBL5338724, “METTL3 from Target Validation to the First Small-Molecule Inhibitors: A Medicinal Chemistry Journey” (J Med Chem, 2023)
One block for each compound: values may come before it.

Key:
[1] = system: Kasumi 1; experiment: Antiproliferative activity against human Kasumi 1 cells assessed as inhibition of cell proliferation incubated for 120 hrs by CellTiter-Glo assay; assay type: functional, cell-based; conditions: Kasumi 1, 120 h
[2] = target: T1, METTL3/METTL14 (Homo sapiens, UniProt Q86U44); experiment: Inhibition of full-length His-tagged METTL3/full length FLAG-tagged METTL14 (unknown origin) expressed in baculovirus expression system using synthetic RNA 5'P-uacacucgaucuggacuaaagcugcuc-3' and SAM as substrate preincubated for 10 mins followed by substrate addition and measured after 60 mins by RF/MS analysis
[3] = system: Caov-3 cell line; experiment: Antiproliferative activity against human Caov-3 cell line assessed as inhibition of cell proliferation incubated for 120 hrs by CellTiter-Glo assay; assay type: functional, cell-based; conditions: Caov-3, 120 h
[4] = target: METTL3/METTL14 (Homo sapiens) (UniProt Q86U44+Q9HCE5); experiment: Inhibition of METTL3/METTL14 (unknown origin) at 60 uM relative to control; assay type: protein-complex assay
[5] = system: Caov-3 cell line; experiment: Antiproliferative activity against human Caov-3 cell line assessed as inhibition of cell proliferation and measured after 7 days by CellTiter-Glo assay; assay type: functional, cell-based; conditions: Caov-3, 168 h
[6] = system: MOLM-13; experiment: Antiproliferative activity against human MOLM-13 cells assessed as inhibition of cell proliferation and measured after 7 days by CellTiter-Glo assay; assay type: functional, cell-based; conditions: MOLM-13, 168 h
[7] = target: T1, METTL3/METTL14; experiment: Inhibition of METTL3/METTL14 (unknown origin) using RNA 5'-GGACUGGACUGGACU-3' as substrate incubated for 2 hrs by LC-MS/MS analysis; assay type: protein-complex assay
[8] = target: T1, METTL3/METTL14; experiment: Inhibition of METTL3/METTL14 (unknown origin) using biotinylated RNA (UCUGGACUAAA-biotin) and 3H-SAM as substrate preincubated for 5 mins followed by substrate addition and measured after 30 mins by scintillation counter analysis; assay type: protein-complex assay
[9] = Selectivity ratio of IC50 for inhibition of METTL3/METTL14 (unknown origin) to IC50 for inhibition of FLT3 (unknown origin)
[10] = Selectivity ratio of IC50 for inhibition of METTL3/METTL14 (unknown origin) to IC50 for inhibition of PRMT5/MEP50 (unknown origin)
[11] = target: T1, METTL3/METTL14; experiment: Inhibition of METTL3/METTL14 (unknown origin); assay type: protein-complex assay
[12] = system: MOLM-13; experiment: Antiproliferative activity against human MOLM-13 cells assessed as inhibition of cell proliferation incubated for 48 hrs by Cell Titer-Glo reagent assay; assay type: functional, cell-based; conditions: MOLM-13, 48 h
[13] = target: T2, N6-adenosine-methyltransferase catalytic subunit (Homo sapiens, UniProt Q86U44); experiment: Inhibition of METTL3 in human MOLM-13 cells assessed as decrease in cellular m6A mRNA level incubated for 24 hrs by NanoDrop spectrophotometer based LC-MS/MS analysis; assay type: cell-based
[14] = system: MOLM-13; experiment: Antiproliferative activity against human MOLM-13 cells assessed as inhibition of cell proliferation incubated for 96 hrs by Cell Titer-Glo reagent assay; assay type: functional, cell-based; conditions: MOLM-13, 96 h
[15] = system: Kasumi 1; experiment: cells; conditions: Homo sapiens, Kasumi 1, 168 h
[16] = system: NOMO-1; experiment: cells; conditions: Homo sapiens, NOMO-1, 168 h
[17] = system: OCI-AML2; experiment: cells; conditions: Homo sapiens, OCI-AML2, 168 h
[18] = system: HL-60; experiment: cells; conditions: Homo sapiens, HL-60, 168 h
[19] = system: OCI-AML-3; experiment: cells; conditions: Homo sapiens, OCI-AML-3, 168 h
[20] = system: EOL1; experiment: cells; conditions: Homo sapiens, EOL1, 168 h
[21] = target: T2, N6-adenosine-methyltransferase catalytic subunit
[22] = target: T1, METTL3/METTL14; experiment: Competive inhibition of full length human METTL3/METTL14 expressed in Sf9 cells using single strand RNA 5'-AAGAACCGGACUAAGCU-3' and SAM as substrate incubated for 40 mins by HTRF assay
[23] = system: THP-1; experiment: Antiproliferative activity against human THP-1 cells assessed as cell growth inhibition; assay type: functional
[24] = system: MOLM-13; experiment: Antiproliferative activity against human MOLM-13 cells assessed as decrease cell proliferation; assay type: functional, cell-based
[25] = system: MOLM-14; experiment: Antiproliferative activity against human MOLM-14 cells assessed as cell growth inhibition; assay type: functional
[26] = target: T1, METTL3/METTL14
[27] = system: HL-60; experiment: Antiproliferative activity against human HL-60 cells assessed as cell growth inhibition; assay type: functional
[28] = system: MOLM-13; experiment: Antiproliferative activity against human MOLM-13 cells assessed as cell growth inhibition; assay type: functional
[29] = target: Histone-lysine N-methyltransferase PRDM9 (Homo sapiens) (UniProt Q9NQV7); experiment: Inhibition of PRDM9 (unknown origin) at 10 uM relative to control
[30] = target: Histone-lysine N-methyltransferase 2B (Homo sapiens) (UniProt Q9UMN6); experiment: Inhibition of MLL4 (unknown origin) at 10 uM relative to control
[31] = target: T1, METTL3/METTL14; experiment: Inhibition of METTL3/METTL14 (unknown origin) by bioluminescence assay; assay type: protein-complex assay

IC50 [2]: < 0.006 µM
Compound: Nc1ncnc2c1c(Br)cn2[C@@H]1C[C@H](c2ccc3cc(CNCC45CC(F)(C4)C5)[nH]c3c2)[C@@H](O)[C@H]1O
IC50 [1]: 0.95 µM
IC50 [3]: 0.25 µM

inhibition [4]: 23.7%
Compound: COC(=O)c1cccc(-c2cccc(N/N=C3\C(=O)N(c4ccc(C)c(C)c4)N=C3C)c2O)c1

Compound: COc1cc(-c2cn(Cc3cn4cc(CNCC5CCC5)ccc4n3)nn2)c2cncn2c1
IC50 [1]: 0.316 µM
IC50 [3]: 0.103 µM

IC50 [6]: 1.17 µM
Compound: COc1ccc2[nH]ncc2c1-c1cn(Cc2cn3cc(CNCC4CCC4)ccc3n2)nn1
IC50 [5]: 0.558 µM

Compound: O=c1cc(-c2ccc(O)c(O)c2)oc2cc(O)cc(O)c12 [LUTEOLIN]
IC50 [7]: 6.23 µM

Compound: Cn1ccc(-c2cn([C@@H]3O[C@H](C(=O)Nc4ccc5ccc(N6CCC6)nc5c4)[C@@H](O)[C@@H]3F)c3ncnc(N)c23)n1
IC50 [8]: < 0.01 µM
Ratio IC50 [9]: > 100
Ratio IC50 [10]: > 100

IC50 [11]: 17.3 µM
Compound: Cc1c(CCOc2ccc(C(=O)O)cc2)c2cc(Cl)ccc2n1C(c1ccccc1)c1ccccc1

IC50 [11]: 13 µM
Compound: O=C(O)c1ccccc1OCCc1cn(C(c2ccccc2)c2ccccc2)c2ccc(Cl)cc12

Compound: Nc1ncnc2c1c(-n1cccn1)cn2[C@H]1C[C@H](O)[C@@H](COc2ccc3ccc(N4CCC4)nc3c2)O1
IC50 [12]: < 10 µM
IC50 [13]: < 1 µM
IC50 [14]: < 10 µM
IC50 [8]: < 0.01 µM

Compound: Cc1coc(-c2cn([C@@H]3O[C@H](COc4ccc5ccc(N6CCC6)nc5c4)[C@@H](O)[C@@H]3F)c3ncnc(N)c23)n1
IC50 [12]: < 10 µM
IC50 [14]: < 10 µM
IC50 [8]: < 0.01 µM

IC50 [13]: < 1 µM
IC50 [14]: < 10 µM
IC50 [8]: < 0.01 µM
Compound: CNc1ccc2ccc(OCc3cncc(-n4cc([C@@H]5CCCO5)c5c(N)ncnc54)c3)cc2n1

inhibition [4]: 23.3%
Compound: CC1=NN(c2ccc(C)c(C)c2)C(=O)/C1=N\Nc1cccc(-c2ccccc2)c1O

IC50 [15]: 0.7 µM
IC50 [16]: 0.6 µM
IC50 [17]: 1.78 µM
IC50 [18]: 10.3 µM
IC50 [6]: 1.04 µM
IC50 [19]: 3.2 µM
IC50 [20]: 1.94 µM
Compound: O=C(NCc1cn2cc(CNCC3CCCCC3)ccc2n1)c1cc(=O)n2ccccc2n1

Kd [21]: 0.00479 µM
Compound: COc1cc2c(cc1Cc1cccc(Cl)c1F)c(=O)c(C(=O)O)cn2[C@H](CO)C(C)C

IC50 [22]: > 250 µM
Compound: Nc1ncnc2c1ncn2[C@@H]1O[C@H](C(=O)NCC2CCNCC2)[C@@H](O)[C@H]1O (single isomer, unassigned)

GI50 [23]: 21.6 µM
EC50 [24]: 14.6 µM
GI50 [25]: 13.1 µM
IC50 [26]: 4.92 µM
GI50 [27]: 15.5 µM
GI50 [28]: 14.6 µM
Compound: O=C(O)c1ccccc1OCCc1cn(-c2ccc(-c3c(Cl)cccc3Cl)cc2)c2ccc(-c3ccc(F)cc3)cc12

IC50 [11]: 6 µM
Compound: O=C(O)c1ccccc1OCCc1cn(C(c2ccccc2)c2ccccc2)c2ccc(-c3ccc(F)cc3)cc12

EC50 [24]: 26.9 µM
IC50 [11]: 3.13 µM
Compound: O=C(O)c1ccccc1OCCc1cn(-c2ccc(-c3ccc(Cl)cc3)cc2)c2ccc(-c3ccc(F)cc3)cc12

IC50 [2]: 0.00363 µM
Compound: COc1cc(-c2cn(Cc3cn4cc(CNCC5CCC5)ccc4n3)nn2)c2cn[nH]c2c1

IC50 [2]: 0.00435 µM
Compound: Clc1cc(-c2cn(Cc3cn4cc(CNCC5CCC5)ccc4n3)nn2)c2cn[nH]c2c1

inhibition [29]: 30%
inhibition [30]: 29%
IC50 [31]: 3.65 µM
Compound: CC1=NN(c2ccc(C)c(C)c2)C(=O)/C1=N\Nc1cccc(-c2cccc(C(=O)O)c2)c1O [ELTROMBOPAG]
